Data published in BindingDB's records for doi:10.1016/j.ejmech.2018.08.092 (University of Lille, 2018).

Experiment: Inhibition of BACE1 in human SH-SY5Y cells harboring wild type APP695 assessed as reduction in amyloid beta (1 to 42) level after 24 hrs by ELISA method

| IC50 [µM] | Structure (SMILES) |
| --- | --- |
| 13.7 | c1ccc(-c2cccc(OCCN3CCCCC3)c2)cc1 |
| 3.4 | CN(C)Cc1ccccc1-c1ccc(NCCCN2CCCCC2)c(OCCN2CCCCC2)c1 |
| 3.6 | CN(C)Cc1ccccc1-c1ccc(NCCCN2CCCCC2)cc1 |
| 1.6 | CN(C)Cc1ccccc1-c1ccc(NCCCCN2CCCCC2)c(OCCN2CCCCC2)c1 |
| 1.6 | CN(C)Cc1ccccc1-c1ccc(NCCN2CCCCC2)c(OCCCCN2CCCCC2)c1 |
| 1.2 | CN(C)Cc1ccccc1-c1cccc(OCCN2CCCCC2)c1 |
| 2.1 | CC(C)CN(CCCN1CCN(CCCNc2nc3ccccc3[nH]2)CC1)CC(C)C [(1H-Benzoimidazol-2-yl)-{3-[4-(3-diisobutylamino-propyl)-piperazin-1-yl]-propyl}-amine] |
| 1.7 | CN(C)Cc1ccc(-c2ccc(NCCCN3CCCCC3)c(OCCN3CCCCC3)c2)cc1 |
| 11.2 | Oc1c(CN2CCCC2)cc(Nc2ccnc3cc(Cl)ccc23)cc1CN1CCCC1 |
| 6.5 | CN(C)Cc1ccn(-c2ccc(NCCCN3CCCCC3)c(OCCN3CCCCC3)c2)c1 |
| 4.8 | c1cc(CN2CCCCC2)cc(-c2ccc(NCCCN3CCCCC3)c(OCCN3CCCCC3)c2)c1 |
| 4.1 | c1ccc(-c2ccc(NCCCN3CCCCC3)c(OCCN3CCCCC3)c2)c(CN2CCCCC2)c1 |
| 3.3 | c1cc(-c2ccc(NCCCN3CCCCC3)c(OCCN3CCCCC3)c2)ccc1CN1CCCCC1 |
| 1.8 | CN(C)Cc1ccccc1-c1ccc(NCCN2CCCCC2)c(OCCCN2CCCCC2)c1 |
| 2.8 | CN(C)Cc1ccccc1-c1ccc(NCCCN2CCCCC2)c(OCCC2CCCCC2)c1 |
| 4 | c1ccc(-c2ccc(NCCCN3CCCCC3)c(OCCN3CCCCC3)c2)cc1 |
| 4.2 | c1ccc(-c2ccc(NCCCN3CCCCC3)c(OCCN3CCCCC3)c2)c(CN2CCOCC2)c1 |
| 1.2 | CN(C)Cc1ccccc1-c1ccc(NCCN2CCCCC2)c(OCCN2CCCCC2)c1 |
